This is an account of results in patent publication US7576088B2, “Benzodioxole derivatives” (Hoffman-La Roche Inc., priority 2002, dated 2009).

Bounds are passed on as bounds.

T1 sequence (P21554 whole entry): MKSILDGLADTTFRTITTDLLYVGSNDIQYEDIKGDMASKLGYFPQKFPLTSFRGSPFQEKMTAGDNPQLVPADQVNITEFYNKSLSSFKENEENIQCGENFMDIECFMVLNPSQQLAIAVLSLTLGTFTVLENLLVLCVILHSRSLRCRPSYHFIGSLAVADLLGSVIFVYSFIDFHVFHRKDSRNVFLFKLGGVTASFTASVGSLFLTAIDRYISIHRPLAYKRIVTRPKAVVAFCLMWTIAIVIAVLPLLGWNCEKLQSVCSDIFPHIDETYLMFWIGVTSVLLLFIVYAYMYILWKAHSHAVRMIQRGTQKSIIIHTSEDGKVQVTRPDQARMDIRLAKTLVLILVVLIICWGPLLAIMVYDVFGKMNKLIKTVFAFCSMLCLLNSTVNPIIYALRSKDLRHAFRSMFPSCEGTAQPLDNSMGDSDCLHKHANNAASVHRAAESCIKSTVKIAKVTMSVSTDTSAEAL

System in one data set: not given
Assay: not given
The conditions noted are these: doses of 5, 10 and 20 mg daily; cited from earlier work.
As to `Cc1c(C(=O)NN2CCCCC2)nn(-c2ccc(Cl)cc2Cl)c1-c1ccc(Cl)cc1` [SR 141716, Rimonabant], the “body weight compared to placebo” value is given as “significantly reduced body weight”.

Another data set concerns the target T1, human cannabis CB1 receptor (Homo sapiens, UniProt P21554).
T1 construct: expressed in transfected cells; host or cells: human embryonic kidney (HEK) cells, Semliki Forest Virus system
Put plainly: Affinity for cannabinoid CB1 receptors, [3H]-CP-55,940 radioligand binding on HEK cell membranes.
Details: not given
On the procedure: The affinity of the compounds of the invention for cannabinoid CB1 receptors was determined using membrane preparations of human embryonic kidney (HEK) cells in which the human cannabis CB1 receptor is transiently transfected using the Semliki Forest Virus system in conjunction with [3H]-CP-55,940 as radioligand. After incubation of a freshly prepared cell membrane preparation with the [3H]-ligand, with or without addition of compounds of the invention, separation of bound and free ligand was performed by filtration over glassfiber filters. Radioactivity on the filter was measured by liquid scintillation counting.
In turn, `O=C(c1ccc2c(c1)OC(c1ccccc1)(c1ccccc1)O2)N1CCC2(CC1)OCCO2` [Example 46, (1,4-dioxa-8-aza-spiro[4.5]dec-8-yl)-(2,2-diphenyl-benzo[1,3]dioxol-5-yl)-methanone] returned an IC50 of less than 2000 nM.

The same data set, now with this note: affinity for the CB1 receptor; read-out: IC50.
For the molecule `O=C(c1cc2c(cc1F)OC(c1ccc(F)cc1)(c1ccc(Cl)cc1Cl)O2)N1CCOCC1` (stereo not drawn) [Example 108, [2-(2,4-dichloro-phenyl)-6-fluoro-2-(4-fluoro-phenyl)-benzo[1,3]dioxol-5-yl]-morpholin-4-yl-methanone], the IC50 was less than 2000 nM.
Regarding `O=S(=O)(c1ccc2c(c1)OC(c1ccccc1)(c1ccccc1)O2)N1CCN(c2ccc(Cl)cc2Cl)CC1` [Example 4, 1-(2,4-dichloro-phenyl)-4-(2,2-diphenyl-benzo[1,3]dioxole-5-sulfonyl)-piperazine], the IC50 was less than 2000 nM.
Turning to `O=S(=O)(c1cc2c(cc1F)OC1(O2)c2ccccc2CCc2ccccc21)N1CCOCC1` [Example 234], the IC50 was less than 2000 nM.
Take `O=S(=O)(c1ccc2c(c1)OC(c1ccccc1)(c1ccccc1)O2)N1CCCN(c2ncc(C(F)(F)F)cc2Cl)CC1` [Example 22, 1-(3-chloro-5-trifluoromethyl-pyridin-2-yl)-4-(2,2-diphenyl-benzo[1,3]dioxole-5-sulfonyl)-[1,4]diazepane]: the IC50 is less than 2000 nM.
Turning to `O=S(=O)(c1ccc2c(c1)OC(c1ccccc1)(c1ccccc1)O2)N1CCc2ccccc2C1` [Example 18, 2-(2,2-diphenyl-benzo[1,3]dioxole-5-sulfonyl)-1,2,3,4-tetrahydro-isoquinoline], the IC50 is less than 2000 nM.
For `O=S(=O)(c1ccc2c(c1)OC(c1ccc(F)cc1)(c1ccc(Cl)cc1Cl)O2)N1CCCCC1` (racemic) [Example 39, 1-[2-(2,4-dichloro-phenyl)-2-(4-fluoro-phenyl)-benzo[1,3]dioxole-5-sulfonyl]-piperidine], the IC50 was less than 2000 nM.
As to `Fc1ccc(C2=CCN(Cc3ccc4c(c3)OC(c3ccccc3)(c3ccccc3)O4)CC2)cc1` [Example 75, 1-(2,2-diphenyl-benzo[1,3]dioxol-5-yl-methyl)-4-(4-fluoro-phenyl)-1,2,3,6-tetrahydro-pyridine], the IC50 is less than 2000 nM.
Take `O=C(c1ccc2c(c1F)OC(c1ccccc1)(c1ccccc1)O2)N1CCOCC1` [Example 65, (4-fluoro-2,2-diphenyl-benzo[1,3]dioxol-5-yl)-morpholin-4-yl-methanone]: the IC50 was less than 2000 nM.
As to `O=S(=O)(NCc1ccccc1)c1ccc2c(c1)OC(c1ccccc1)(c1ccccc1)O2` [Example 20, 2,2-diphenyl-benzo[1,3]dioxole-5-sulfonic acid benzylamide], the IC50 was less than 2000 nM.
Turning to `O=C(c1cc2c(cc1F)OC(c1ccccc1F)(c1ccccc1F)O2)N1CC[C@H](O)C1` [Example 271], the IC50 is less than 2000 nM.
As to `O=C(c1cc2c(cc1F)OC(c1ccc(F)cc1)(c1ccc(F)cc1)O2)N1CCCC1` [Example 164, [6-fluoro-2,2-bis-(4-fluoro-phenyl)-benzo[1,3]dioxol-5-yl]-pyrrolidin-1-yl-methanone], the IC50 was less than 2000 nM.

System in the next data set: not given
Assay: not given
Details: not given
`O=C(c1cc2c(cc1F)OC(c1ccccc1Cl)(c1ccccc1Cl)O2)N1CCOCC1` came in with a melting point of 98 °C.
Molecule `O=C(c1ccc2c(c1)OC(c1cccc(Cl)c1)(c1cccc(Cl)c1)O2)N1CCCCC1` gave a melting point of 54 °C.

What is called IC50 is the concentration that inhibits the measured activity by half. The melting point is the temperature of the solid-liquid transition.
